# Active and inactive are the calls of the source.
# Columns and labels:
# Neuromedin-K receptor [1] = target: T1, Neuromedin-K receptor (Homo sapiens, UniProt P29371); experiment: Displacement of [125I]neurokinin B from cloned human NK3 receptor expressed in CHO cells; format: cell-based
# T1 sequence (P29371 whole entry): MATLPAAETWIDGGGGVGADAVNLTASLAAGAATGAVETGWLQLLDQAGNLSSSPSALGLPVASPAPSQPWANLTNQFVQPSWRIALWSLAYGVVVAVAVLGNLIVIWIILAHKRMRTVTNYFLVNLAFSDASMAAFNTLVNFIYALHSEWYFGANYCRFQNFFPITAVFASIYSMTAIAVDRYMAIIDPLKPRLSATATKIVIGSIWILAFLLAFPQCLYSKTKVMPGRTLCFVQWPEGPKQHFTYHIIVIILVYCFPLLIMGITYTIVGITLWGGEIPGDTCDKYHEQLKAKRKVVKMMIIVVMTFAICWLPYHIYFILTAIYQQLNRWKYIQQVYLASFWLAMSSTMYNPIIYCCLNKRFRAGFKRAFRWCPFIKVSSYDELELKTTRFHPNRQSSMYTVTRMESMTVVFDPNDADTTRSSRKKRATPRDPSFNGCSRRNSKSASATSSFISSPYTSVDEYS
# PXR (NR1I2) = target: T2, PXR (NR1I2) (Homo sapiens, UniProt O75469); experiment: Increase in human PXR activation expressed in CHO cells relative to rifampicin; format: cell-based; conditions: CHO cells expressing human PXR, read-out: Activity
# T2 sequence (O75469 whole entry): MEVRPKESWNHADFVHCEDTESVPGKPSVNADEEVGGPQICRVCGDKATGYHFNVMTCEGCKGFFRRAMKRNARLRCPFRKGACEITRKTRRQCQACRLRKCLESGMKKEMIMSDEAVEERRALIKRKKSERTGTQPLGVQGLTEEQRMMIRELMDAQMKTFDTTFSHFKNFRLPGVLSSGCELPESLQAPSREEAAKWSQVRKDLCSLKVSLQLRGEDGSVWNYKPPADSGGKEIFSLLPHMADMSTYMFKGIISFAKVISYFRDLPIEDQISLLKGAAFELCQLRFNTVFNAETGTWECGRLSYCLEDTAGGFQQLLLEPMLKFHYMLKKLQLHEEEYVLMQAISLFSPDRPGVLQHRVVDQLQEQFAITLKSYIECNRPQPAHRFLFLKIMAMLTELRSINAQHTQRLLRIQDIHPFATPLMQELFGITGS
# [2] = Metabolic stability in rat liver microsomes after 15 mins; format: ADME, Microsome; conditions: read-out: Stability
# Gerbil, jird [3] = experiment: Plasma concentration in gerbil at 10 mg/kg, po; format: ADME, organism-based; parameters: dose 10 mg/kg, route oral; conditions: meriones, in vivo
# Gerbil, jird [4] = experiment: Plasma concentration in gerbil at 75 mg/kg, po; format: ADME, organism-based; parameters: dose 75 mg/kg, route oral; conditions: meriones, in vivo
# [5] = target: T3, Neuromedin-K receptor (Homo sapiens) (UniProt P29371); experiment: Displacement of [125I]neurokinin B from cloned human NK3 receptor expressed in CHO cells at 1 uM; format: cell-based; conditions: filed as antagonist
# T3 sequence (whole entry): T1 sequence (P29371 whole entry)
# Cytochrome P450 2D6 = Cytochrome P450 2D6 (Homo sapiens, UniProt P10635); experiment: Inhibition of CYP2D6 in human liver microsomes; format: ADME, Microsome
# Cytochrome P450 2D6, sequence (P10635 whole entry): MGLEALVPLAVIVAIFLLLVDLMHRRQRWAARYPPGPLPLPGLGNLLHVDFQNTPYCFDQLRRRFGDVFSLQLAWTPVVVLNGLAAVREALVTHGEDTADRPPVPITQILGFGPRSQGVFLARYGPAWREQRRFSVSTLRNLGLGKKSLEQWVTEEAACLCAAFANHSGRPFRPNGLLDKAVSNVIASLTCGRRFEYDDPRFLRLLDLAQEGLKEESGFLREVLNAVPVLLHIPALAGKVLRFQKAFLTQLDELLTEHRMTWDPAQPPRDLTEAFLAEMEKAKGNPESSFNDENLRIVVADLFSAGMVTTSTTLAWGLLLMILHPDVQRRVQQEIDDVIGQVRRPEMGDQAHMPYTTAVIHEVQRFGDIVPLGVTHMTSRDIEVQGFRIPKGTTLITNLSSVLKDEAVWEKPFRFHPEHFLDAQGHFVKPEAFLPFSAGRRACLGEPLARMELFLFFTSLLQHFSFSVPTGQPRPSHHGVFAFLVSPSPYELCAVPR
# Substance-K receptor = target: T4, Substance-K receptor (Homo sapiens, UniProt P21452); experiment: Inhibition of human NK2 receptor
# T4 sequence (P21452 whole entry): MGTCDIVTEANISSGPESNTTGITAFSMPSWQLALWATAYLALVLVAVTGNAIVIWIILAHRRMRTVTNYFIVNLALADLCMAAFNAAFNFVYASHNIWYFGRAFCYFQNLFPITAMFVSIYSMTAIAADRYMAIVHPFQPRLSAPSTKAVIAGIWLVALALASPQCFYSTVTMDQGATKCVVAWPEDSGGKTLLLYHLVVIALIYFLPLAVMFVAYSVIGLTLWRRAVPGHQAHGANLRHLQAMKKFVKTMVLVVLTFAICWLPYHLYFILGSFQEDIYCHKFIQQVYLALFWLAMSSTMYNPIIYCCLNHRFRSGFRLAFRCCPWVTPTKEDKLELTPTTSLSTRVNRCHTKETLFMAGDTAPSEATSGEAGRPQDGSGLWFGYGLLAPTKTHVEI
# Substance-P receptor = Substance-P receptor (Homo sapiens, UniProt P25103); experiment: Inhibition of human NK1 receptor
# Substance-P receptor, sequence (P25103 whole entry): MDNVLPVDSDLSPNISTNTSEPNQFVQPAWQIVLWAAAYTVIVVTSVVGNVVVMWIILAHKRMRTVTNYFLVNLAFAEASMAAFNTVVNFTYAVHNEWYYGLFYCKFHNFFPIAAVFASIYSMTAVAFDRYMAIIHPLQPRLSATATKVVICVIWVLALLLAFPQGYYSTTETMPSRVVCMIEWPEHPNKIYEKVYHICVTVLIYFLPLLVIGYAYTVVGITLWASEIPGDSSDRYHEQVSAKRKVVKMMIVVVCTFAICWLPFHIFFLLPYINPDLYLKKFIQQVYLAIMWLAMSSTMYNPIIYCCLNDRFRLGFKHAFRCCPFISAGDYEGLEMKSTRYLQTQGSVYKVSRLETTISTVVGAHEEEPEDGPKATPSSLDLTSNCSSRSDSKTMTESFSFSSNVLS
# [6] = Oral bioavailability in rat; format: ADME, organism-based; conditions: in vivo
# [7] = target: T3, Neuromedin-K receptor (Homo sapiens); experiment: Activity at human NK3 receptor assessed as stimulation of inositol phosphate generation in CHO cells up to 10 uM; format: functional, cell-based
# Escherichia coli [8] = experiment: Effect on Escherichia coli mutation in absence of liver microsomal enzymes by Ames assay; format: functional, organism-based
# [9] = target: T3, Neuromedin-K receptor (Homo sapiens); experiment: Activity at human NK3 receptor assessed as inhibition of eledoisin-induced inositol phosphate generation in CHO cells; format: functional, cell-based
# Cytochrome P450 3A4 = Cytochrome P450 3A4 (Homo sapiens, UniProt P08684); experiment: Inhibition of CYP3A4 in human liver microsomes; format: ADME, Microsome
# Cytochrome P450 3A4, sequence (P08684 whole entry): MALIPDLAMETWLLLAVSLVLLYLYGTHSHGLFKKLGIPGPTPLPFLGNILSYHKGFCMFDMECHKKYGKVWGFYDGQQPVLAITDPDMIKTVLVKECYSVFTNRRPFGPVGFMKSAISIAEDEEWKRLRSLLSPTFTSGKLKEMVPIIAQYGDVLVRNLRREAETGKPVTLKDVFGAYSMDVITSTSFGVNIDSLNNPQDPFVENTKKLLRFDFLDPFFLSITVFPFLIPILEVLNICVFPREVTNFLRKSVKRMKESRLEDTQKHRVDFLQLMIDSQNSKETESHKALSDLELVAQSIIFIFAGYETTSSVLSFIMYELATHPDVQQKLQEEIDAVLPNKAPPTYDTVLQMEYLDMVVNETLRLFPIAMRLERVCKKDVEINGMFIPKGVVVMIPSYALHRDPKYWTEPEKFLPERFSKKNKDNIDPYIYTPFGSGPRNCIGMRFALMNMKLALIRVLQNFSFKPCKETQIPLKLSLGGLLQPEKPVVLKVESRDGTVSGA
# Salmonella typhimurium [10] = experiment: Effect on Salmonella Typhimurium mutation in presence of liver microsomal enzymes by Ames assay; format: functional, organism-based; conditions: Salmonella enterica subsp. enterica serovar Typhimurium
# Gerbil, jird [11] = experiment: Plasma concentration in gerbil at 30 mg/kg, po; format: ADME, organism-based; parameters: dose 30 mg/kg, route oral; conditions: meriones, in vivo
# [12] = Half life in dog; format: ADME, organism-based, Canis lupus familiaris; conditions: in vivo
# Escherichia coli [13] = experiment: Effect on Escherichia coli mutation in presence of liver microsomal enzymes by Ames assay; format: functional, organism-based
# Cytochrome P450 2C9 = Cytochrome P450 2C9 (Homo sapiens, UniProt P11712); experiment: Inhibition of CYP2C9 in human liver microsomes; format: ADME, Microsome
# Cytochrome P450 2C9, sequence (P11712 whole entry): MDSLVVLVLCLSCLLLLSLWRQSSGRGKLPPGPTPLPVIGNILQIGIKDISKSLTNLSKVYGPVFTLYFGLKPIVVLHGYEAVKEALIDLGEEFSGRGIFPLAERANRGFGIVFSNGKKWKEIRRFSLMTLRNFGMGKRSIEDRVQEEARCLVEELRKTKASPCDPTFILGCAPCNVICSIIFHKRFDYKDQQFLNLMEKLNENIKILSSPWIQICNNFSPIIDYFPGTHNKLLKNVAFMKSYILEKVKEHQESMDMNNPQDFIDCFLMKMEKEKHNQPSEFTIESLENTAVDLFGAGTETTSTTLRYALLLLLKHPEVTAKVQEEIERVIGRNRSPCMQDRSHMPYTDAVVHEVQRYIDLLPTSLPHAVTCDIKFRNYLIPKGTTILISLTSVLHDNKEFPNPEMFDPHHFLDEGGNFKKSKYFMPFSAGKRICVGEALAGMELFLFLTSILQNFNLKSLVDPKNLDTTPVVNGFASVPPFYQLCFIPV
# Neuromedin-K receptor [14] = target: T5, Neuromedin-K receptor (Rattus norvegicus, UniProt P16177); experiment: Binding affinity to rat NK3 receptor
# T5 sequence (P16177 whole entry): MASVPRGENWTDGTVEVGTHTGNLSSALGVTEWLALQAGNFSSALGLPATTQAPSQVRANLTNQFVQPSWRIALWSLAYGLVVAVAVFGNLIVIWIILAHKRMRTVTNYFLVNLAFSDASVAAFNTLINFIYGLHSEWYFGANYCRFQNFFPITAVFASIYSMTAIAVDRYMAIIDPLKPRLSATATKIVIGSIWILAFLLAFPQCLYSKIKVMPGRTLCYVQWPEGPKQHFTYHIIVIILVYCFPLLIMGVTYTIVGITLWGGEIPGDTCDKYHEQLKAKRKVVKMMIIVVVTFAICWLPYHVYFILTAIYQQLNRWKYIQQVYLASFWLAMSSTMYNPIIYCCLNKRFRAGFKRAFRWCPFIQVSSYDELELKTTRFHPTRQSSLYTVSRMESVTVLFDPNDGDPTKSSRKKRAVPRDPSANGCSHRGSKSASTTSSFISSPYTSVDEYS
# Salmonella typhimurium [15] = experiment: Effect on Salmonella Typhimurium mutation in absence of liver microsomal enzymes by Ames assay; format: functional, organism-based; conditions: Salmonella enterica subsp. enterica serovar Typhimurium
# Hepatocyte = experiment: Induction of CYP3A4 in human hepatocytes at 20 uM relative to rifampicin; format: functional, cell-based
# [16] = target: T3, Neuromedin-K receptor (Homo sapiens); experiment: Activity at human NK3 receptor assessed as stimulation of calcium mobilization in CHO cells up to 10 uM; format: functional, cell-based
# [17] = Oral bioavailability in dog; format: ADME, organism-based, Canis lupus familiaris; conditions: in vivo
# [18] = Half life in rat; format: ADME, organism-based; conditions: in vivo
# [19] = target: Voltage-gated inwardly rectifying potassium channel KCNH2 (Homo sapiens, UniProt Q12809); experiment: Inhibition of hERG; format: toxicity
# Voltage-gated inwardly rectifying potassium channel KCNH2, sequence (Q12809 whole entry): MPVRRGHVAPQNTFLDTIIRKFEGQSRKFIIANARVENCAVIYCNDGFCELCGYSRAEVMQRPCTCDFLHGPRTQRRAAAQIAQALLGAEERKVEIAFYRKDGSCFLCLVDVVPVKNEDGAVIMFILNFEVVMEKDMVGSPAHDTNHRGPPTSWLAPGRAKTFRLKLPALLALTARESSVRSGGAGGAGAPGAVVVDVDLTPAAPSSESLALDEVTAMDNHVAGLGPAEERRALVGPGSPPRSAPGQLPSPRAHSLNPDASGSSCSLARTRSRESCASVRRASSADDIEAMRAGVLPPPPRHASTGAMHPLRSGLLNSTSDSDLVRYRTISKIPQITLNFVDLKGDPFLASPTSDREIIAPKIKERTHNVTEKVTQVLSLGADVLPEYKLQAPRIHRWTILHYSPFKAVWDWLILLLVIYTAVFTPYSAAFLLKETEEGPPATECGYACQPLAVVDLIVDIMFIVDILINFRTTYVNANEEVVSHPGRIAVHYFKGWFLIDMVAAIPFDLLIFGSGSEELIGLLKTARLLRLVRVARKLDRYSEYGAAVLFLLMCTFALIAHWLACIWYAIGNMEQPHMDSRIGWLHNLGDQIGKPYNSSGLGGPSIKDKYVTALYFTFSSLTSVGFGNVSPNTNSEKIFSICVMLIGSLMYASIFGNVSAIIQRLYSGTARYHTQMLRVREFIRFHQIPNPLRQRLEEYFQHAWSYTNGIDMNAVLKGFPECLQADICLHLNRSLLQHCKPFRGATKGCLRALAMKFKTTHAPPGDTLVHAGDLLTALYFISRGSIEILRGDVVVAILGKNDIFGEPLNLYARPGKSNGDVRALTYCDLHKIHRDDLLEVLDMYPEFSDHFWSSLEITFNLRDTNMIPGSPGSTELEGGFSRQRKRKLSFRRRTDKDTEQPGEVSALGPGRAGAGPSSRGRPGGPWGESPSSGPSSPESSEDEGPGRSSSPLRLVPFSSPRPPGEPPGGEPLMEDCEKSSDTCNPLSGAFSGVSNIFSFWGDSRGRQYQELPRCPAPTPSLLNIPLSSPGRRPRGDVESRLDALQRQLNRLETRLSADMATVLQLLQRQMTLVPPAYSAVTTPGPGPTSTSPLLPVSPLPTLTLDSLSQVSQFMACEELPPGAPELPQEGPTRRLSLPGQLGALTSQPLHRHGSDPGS
smiles,measurement,setting,value
COC(=O)N(NC(=O)c1c(OC)c(-c2ccccc2)nc2cc(F)ccc12)c1ccccc1,IC50,Neuromedin-K receptor [1],28 nM (antagonist)
same,Emax,PXR (NR1I2),62%
COC(=O)N(NC(=O)c1c(OC)c(-c2ccccc2)nc2ccc(F)cc12)c1ccccc1,IC50,Neuromedin-K receptor [1],38 nM (antagonist)
same,Emax,PXR (NR1I2),62%
COc1c(-c2ccccc2)nc2ccccc2c1C(=O)NN(c1ccccc1)c1ccccc1,remaining at 0.25 h,[2],65%
same,IC50,Neuromedin-K receptor [1],0.85 nM (antagonist)
same,Emax,PXR (NR1I2),68%
same,concentration,"Gerbil, jird [3]",40 nM
CC[C@H](NC(=O)c1c(O)c(-c2ccccc2)nc2ccccc12)c1ccccc1 [TALNETANT],Emax,PXR (NR1I2),62%
same,concentration,"Gerbil, jird [4]",3800 nM
COC(=O)N(NC(=O)c1c(OC)c(-c2cccc(F)c2)nc2ccccc12)c1ccccc1,IC50,Neuromedin-K receptor [1],22 nM (antagonist)
same,Emax,PXR (NR1I2),69%
COC(=O)N(NC(=O)c1cc(-c2ccccc2)nc2ccccc12)c1ccccc1,IC50,Neuromedin-K receptor [1],91 nM (antagonist)
same,Emax,PXR (NR1I2),44%
COc1c(-c2ccccc2)nc2ccccc2c1C(=O)NN(C(C)=O)c1ccccc1,IC50,Neuromedin-K receptor [1],210 nM (antagonist)
COC(=O)N(NC(=O)c1c(OC)c(-c2ccccc2)nc2c(F)cccc12)c1ccccc1,IC50,Neuromedin-K receptor [1],4.1 nM (antagonist)
same,Emax,PXR (NR1I2),75%
CCC(=O)N(NC(=O)c1c(OC)c(-c2ccccc2)nc2ccccc12)c1ccccc1,IC50,Neuromedin-K receptor [1],22 nM (antagonist)
COC(=O)N(NC(=O)c1c(OC)c(-c2ccccc2F)nc2ccccc12)c1ccccc1,IC50,Neuromedin-K receptor [1],110 nM (antagonist)
COC(=O)N(NC(=O)c1c(OC)c(-c2ccc(F)cc2)nc2ccccc12)c1ccccc1,IC50,Neuromedin-K receptor [1],24 nM (antagonist)
same,Emax,PXR (NR1I2),54%
COc1c(-c2ccccc2)nc2ccccc2c1C(=O)NN(C)c1ccccc1,IC50,Neuromedin-K receptor [1],57 nM (antagonist)
COC(=O)N(NC(=O)c1c(OC)c(-c2ccccc2)nc2ccccc12)c1cccc(F)c1,IC50,Neuromedin-K receptor [1],7.4 nM (antagonist)
same,Emax,PXR (NR1I2),54%
COC(=O)N(NC(=O)c1c(OC)c(-c2ccccc2)nc2c(C#N)cccc12)c1ccccc1,Emax,PXR (NR1I2),87%
same,inhibition,[5],35%
COC(=O)N(NC(=O)c1c(OC)c(-c2ccccc2)nc2cccc(F)c12)c1ccccc1,IC50,Neuromedin-K receptor [1],11 nM (antagonist)
same,Emax,PXR (NR1I2),55%
COC(=O)N(NC(=O)c1c(OC)c(-c2ccccc2)nc2ccccc12)c1ccccc1F,IC50,Neuromedin-K receptor [1],53 nM (antagonist)
CCOC(=O)N(NC(=O)c1c(OC)c(-c2ccccc2)nc2ccccc12)c1ccccc1,IC50,Neuromedin-K receptor [1],60 nM (antagonist)
COC(=O)N(NC(=O)c1c(N)c(-c2ccccc2)nc2ccccc12)c1ccccc1,IC50,Neuromedin-K receptor [1],10 nM (antagonist)
same,Emax,PXR (NR1I2),64%
CCN(NC(=O)c1c(OC)c(-c2ccccc2)nc2ccccc12)c1ccccc1,IC50,Neuromedin-K receptor [1],16 nM (antagonist)
COc1c(-c2ccccc2)nc2ccccc2c1C(=O)NNc1ccccc1,IC50,Neuromedin-K receptor [1],32 nM (antagonist)
COc1c(-c2ccccc2)nc2ccccc2c1C(=O)NN(C(=O)OCC(C)C)c1ccccc1,IC50,Neuromedin-K receptor [1],190 nM (antagonist)
COC(=O)N(NC(=O)c1c(C)c(-c2ccccc2)nc2ccccc12)c1ccccc1,IC50,Neuromedin-K receptor [1],8.4 nM (antagonist)
same,Emax,PXR (NR1I2),56%
COC(=O)N(NC(=O)c1c(O)c(-c2ccccc2)nc2ccccc12)c1ccccc1,IC50,Neuromedin-K receptor [1],39 nM (antagonist)
COC(=O)N(NC(=O)c1c(OC)c(-c2ccccc2)nc2c(Br)cccc12)c1ccccc1,IC50,Neuromedin-K receptor [1],430 nM (antagonist)
same,Emax,PXR (NR1I2),88%
COC(=O)N(NC(=O)c1c(OC)c(-c2ccccc2)nc2ccccc12)c1ccc(F)cc1,IC50,Neuromedin-K receptor [1],33 nM (antagonist)
COC(=O)N(NC(=O)c1c(OC)c(-c2ccccc2)nc2ccccc12)c1ccccc1,IC50,Cytochrome P450 2D6,> 30000 nM
same,IC50,Substance-K receptor,> 1000 nM
same,IC50,Substance-P receptor,> 1000 nM
same,remaining at 0.25 h,[2],21%
same,bioavailability,[6],43%
same,Activity,[7],inactive
same,Activity,Escherichia coli [8],inactive
same,Activity,[9],Dose-dependent effect
same,IC50,Cytochrome P450 3A4,12000 nM
same,Emax,PXR (NR1I2),49%
same,Activity,Salmonella typhimurium [10],inactive
same,concentration,"Gerbil, jird [11]",950 nM
same,half-life,[12],3 h
same,Activity,Escherichia coli [13],inactive
same,IC50,Cytochrome P450 2C9,> 30000 nM
same,IC50,Neuromedin-K receptor [14],66 nM (antagonist)
same,Activity,Salmonella typhimurium [15],inactive
same,Activity,Hepatocyte,Active
same,Activity,[16],inactive
same,bioavailability,[17],36%
same,half-life,[18],4.6 h
same,Ki,[19],> 8000 nM
COC(=O)N(NC(=O)c1c(OC)c(-c2ccccc2)nc2c(C(F)(F)F)cccc12)c1ccccc1,Emax,PXR (NR1I2),87%
same,inhibition,[5],27%
